Source: patent US10350284B1, “Antigen specific multi epitope-based anti-infective vaccines” (priority 2009, dated 2019)
“And” between values parts separate entries of the source, which are not always exact repeats. Identical values can stand only once. Like-named read-outs stand apart in the source and are kept apart here.

Legend:
Format in all cases: cell-based, human
[1] = system: PBMC derived from naïve donors; assay: Cytokine secretion (quantitative ELISA) by PBMC from naïve donors; details: for donors with positive (x>0.1 ng/ml) IL-4 secretion / donors with positive (x>0.1 ng/ml) IL-12 secretion / donors with positive (x>0.1 ng/ml) IL-2 secretion: 48 hrs stimulation, FIG. 7A
[2] = system: naïve peripheral blood mononuclear cells (PBMC); assay: Proliferation ([3H] Thymidine) of PBMC from naïve donors stimulated with VXL tuberculosis vaccine candidates; details: for proliferation in donors which also manifested response to PPD: PPD positive (SI≥2) naïve PBMC, FIG. 3B; for proliferation in donors which also manifested response to PPD / positive proliferation in donors which also manifested response to TT / SI and coverage in the total 11 donors / proliferation in PPD positive versus PPD negative donors: in words; for positive proliferation in donors which also manifested response to TT: TT positive (SI≥2) naïve PBMC, FIG. 3A; for SI and coverage in the total 11 donors: in comparison with the positive controls; for proliferation in PPD positive versus PPD negative donors: naïve PBMC, FIG. 4
[3] = system: autologous macrophages infected with live Mtb; details: peptide-induced T cell lines from naïve donors and TB patients, FIG. 12; in words
[4] = system: autologous macrophages loaded with VXL VCs; assay: Cytotoxic activity of VXL-induced T cell lines against loaded autologous macrophages (35S Methionine); details: T cell line induced by the peptide; in words
[5] = system: anti-VXL VCs T cell lines from naïve donors; assay: FACS phenotype of anti-VXL T cell lines (CD44high, CD62Lhigh); details: FIG. 14; for CD44high activated effector cells in CD8+ / CD62Lhigh memory cells in CD8+: after the 3rd stimulation; for CD62Lhigh memory cells in CD4+ / CD44high activated effector cells in CD4+: already after the 1st stimulation
[6] = system: anti-VXL T cell lines after the 3rd stimulation; assay: Intra-cellular staining (ICS) FACS for IFN-gamma and IL-4 in T cell lines; details: 6 h stimulation with peptide-loaded autologous macrophages, FIG. 15
[7] = system: anti-VXL effector T-cell lines; assay: IFN-gamma released by effector T cell lines during the lysis process (ELISA)
[8] = donor #15 (FIG. 12B), naïve donor T cell line
[9] = patient #18 (FIG. 12D), Mtb patient T cell line

| Sequence | donors with positive (x>0.1 ng/ml) IL-4 secretion [1] | donors with positive (x>0.1 ng/ml) IL-12 secretion [1] | proliferation in donors which also manifested response to PPD [2] | positive proliferation in donors which also manifested response to TT [2] | donors with positive (x>0.1 ng/ml) IL-2 secretion [1] | lysis of Mtb infected macrophages [3] | lysis against PPD-loaded targets [4] | CD44high activated effector cells in CD8+ [5] | CD62Lhigh memory cells in CD8+ [5] | CD62Lhigh memory cells in CD4+ [5] | maximal percentage of specific IFN-gamma produced by CD8+ T-cells [6] | average SI [2] | SI and coverage in the total 11 donors [2] | proliferation in PPD positive versus PPD negative donors [2] | average SI ([2]; pure (>90%) peptide, naïve donors, FIG. 9A) | IFN-gamma detected [7, 8] | IFN-gamma detected [7, 9] | IFN-gamma detected [7] | CD44high activated effector cells in CD4+ [5] | IL-4 secretion ([1]; in words) |
| --- | --- | --- | --- | --- | --- | --- | --- | --- | --- | --- | --- | --- | --- | --- | --- | --- | --- | --- | --- | --- |
| MAAMWRRRPLSSALLSFGLLLGGLPLAAPPLAGA (listed as Mycobacterium tuberculosis) [VXL207, signal peptide of Protease, Tuberculosis] | 25% | 8.6% | – | – | – | – | – | – | – | – | – | – | – | – | – | – | – | – | – | – |
| MKIRLHTLLAVLTAAPLLLAAAGCGS [VXL200] | – | – | stronger | to some extent | 25% | – | – | – | – | – | – | – | – | – | – | – | – | – | – | – |
| MKRGLTVAVAGAAILVAGLSGCSS [VXL203] | – | 8.6% | – | to some extent | – | high and specific lysis | specific lysis | 79% | 17% | 39% | 8.2% | 1.8+/−0.8 | to some extent | more potent in donors which were not exposed in the past to the tuberculosis Bactria | 5.7+/−6.8 | 3.8 µg/mL | 11 µg/mL | – | – | – |
| MKTGTATTRRRLLAVLIALALPGAAVA (listed as Mycobacterium tuberculosis) [VXL206, signal peptide of Hypothetical protein MT0 213, Tuberculosis] | – | 8.6% | – | – | – | – | – | – | – | – | – | – | – | – | – | – | – | – | – | – |
| MLLRKGTVYVLVIRADLVNAMVAHA (listed as Mycobacterium tuberculosis) [VXL212, signal peptide of Uncharacterized protein Rv1334/MT1376 precursor, Tuberculosis] | – | 58.3% | stronger | more positive | – | lower lysis levels | – | – | – | – | – | – | highest SI and widest coverage | even stronger in donors with previous exposure to the tuberculosis Bactria | – | – | 7.5 µg/mL | 5.6 µg/mL and 3.6 µg/mL | – | – |
| MLVLLVAVLVTAVYAFVHA (listed as Mycobacterium tuberculosis) [VXL211, signal peptide of Uncharacterized protein Rv0476/MT04941 precursor, Tuberculosis] | – | 58.3% | stronger | more positive | 91.6% | moderate lysis | specific lysis | 80% | 40.9% | – | 10.6% | – | highest SI and widest coverage | even stronger in donors with previous exposure to the tuberculosis Bactria | – | 5.9 µg/mL | – | 9.2 µg/mL and 7.8 µg/mL | 41% | – |
| MRFAQPSALSRFSALTRDWFTSTFAAPTAAQA (listed as Mycobacterium tuberculosis) [VXL208, signal peptide of ATP dependent helicase putative, Tuberculosis] | 25% | – | stronger | more positive | – | lower lysis levels | – | 50.2% | 32.1% | 22% | – | – | highest SI and widest coverage | even stronger in donors with previous exposure to the tuberculosis Bactria | – | 3.6 µg/mL | – | 2.6 µg/mL | 52% | some secretion of IL-4 |
| MRPSRYAPLLCAMVLALAWLSAVAG (listed as Mycobacterium tuberculosis) [VXL214, signal peptide of Putative lipoprotein IpqV precursor, Tuberculosis] | – | – | – | to some extent | – | – | – | – | – | – | – | – | – | – | – | – | – | – | – | – |
| MTDVSRKIRAWGRRLMIGTAAAVVLPGLVGLAGGAATAGA (listed as Mycobacterium tuberculosis) [VXL201, signal peptide of Antigen 85B, Tuberculosis] | – | – | stronger | more positive | – | high and specific lysis | – | – | – | – | – | – | highest SI and widest coverage | even stronger in donors with previous exposure to the tuberculosis Bactria | – | – | 14 µg/mL | 6 µg/mL and 10 µg/mL and 11.3 µg/mL | – | – |
